Measurements: ChEMBL document CHEMBL3046486, “Insights into the structural requirement of 6-nitroquinolone-3-carboxylic acids as antimycobacterial agent: chemometric approaches” (2012)

System: Mycobacterium tuberculosis
Assay: Antimycobacterial activity against Mycobacterium tuberculosis by NCCLS agar dilution method
Type: functional

| SMILES | -logMIC |
| --- | --- |
| CC(C)(C)n1cc(C(=O)O)c(=O)c2cc([N+](=O)[O-])c(N3CCN(C(=O)c4ccco4)CC3)cc21 | 5.175 |
| O=C(O)c1cn(C2CC2)c2cc(N3CCC(O)(c4ccc(Cl)cc4)CC3)c([N+](=O)[O-])cc2c1=O | 6.092 |
| CC1CN(c2cc3c(cc2[N+](=O)[O-])c(=O)c(C(=O)O)cn3-c2ccc(F)cc2)CC(C)O1 (stereo unspecified) | 5.452 |
| CCN(CC)C(=O)C1CCCN(c2cc3c(cc2[N+](=O)[O-])c(=O)c(C(=O)O)cn3C2CC2)C1 (stereo unspecified) | 5.466 |
| O=C(O)c1cn(-c2ccc(F)cc2)c2cc(N3CCN(Cc4ccc5c(c4)OCO5)CC3)c([N+](=O)[O-])cc2c1=O | 5.545 |
| O=C(O)c1cn(-c2ccc(F)cc2)c2cc(N3CCC(n4c(=O)[nH]c5cc(Cl)ccc54)CC3)c([N+](=O)[O-])cc2c1=O | 5.266 |
| CC(C)(C)n1cc(C(=O)O)c(=O)c2cc([N+](=O)[O-])c(N3CCSCC3)cc21 | 5.097 |
| O=C(O)c1cn(C2CC2)c2cc(N3CCSCC3)c([N+](=O)[O-])cc2c1=O | 5.38 |
| CC(C)(C)NC(=O)C1c2ccccc2CCN1c1cc2c(cc1[N+](=O)[O-])c(=O)c(C(=O)O)cn2C1CC1 (stereo unspecified) | 5.81 |
| O=C(O)c1cn(C2CC2)c2cc(N3CCC(N4CCCCC4)CC3)c([N+](=O)[O-])cc2c1=O | 6.367 |
| CCN(CC)C(=O)C1CCCN(c2cc3c(cc2[N+](=O)[O-])c(=O)c(C(=O)O)cn3-c2ccc(F)cc2)C1 (stereo unspecified) | 5.213 |
| O=C(O)c1cn(-c2ccc(F)cc2)c2cc(N3CCC4(CC3)OCCO4)c([N+](=O)[O-])cc2c1=O | 5.176 |
| CN1CCN(c2cc3c(cc2[N+](=O)[O-])c(=O)c(C(=O)O)cn3C(C)(C)C)CC1c1ccccc1 (stereo unspecified) | 4.793 |
| Cc1onc(-c2c(F)cccc2F)c1C(=O)N1CCN(c2cc3c(cc2[N+](=O)[O-])c(=O)c(C(=O)O)cn3-c2ccc(F)cc2)CC1 | 5.306 |
| CC(C)(C)NC(=O)C1c2ccccc2CCN1c1cc2c(cc1[N+](=O)[O-])c(=O)c(C(=O)O)cn2-c1ccc(F)cc1 (stereo unspecified) | 5.252 |
| CC(C)(C)n1cc(C(=O)O)c(=O)c2cc([N+](=O)[O-])c(N3CCC(n4c(=O)[nH]c5cc(Cl)ccc54)CC3)cc21 | 5.237 |

| SMILES | -logMIC |
| --- | --- |
| CC(C)(C)n1cc(C(=O)O)c(=O)c2cc([N+](=O)[O-])c(N3CCN(C(c4ccccc4)c4ccc(Cl)cc4)CC3)cc21 (stereo unspecified) | 5.264 |
| CC(C)(C)n1cc(C(=O)O)c(=O)c2cc([N+](=O)[O-])c(N3CCn4cc(C(=O)O)nc4C3)cc21 | 5.163 |
| CC(C)(C)n1cc(C(=O)O)c(=O)c2cc([N+](=O)[O-])c(N3CCC4(CC3)OCCO4)cc21 | 5.128 |
| O=C(O)c1cn2c(n1)CN(c1cc3c(cc1[N+](=O)[O-])c(=O)c(C(=O)O)cn3-c1ccc(F)cc1)CC2 | 4.92 |
| COc1ccc(CC2C3=C(CCCC3)CCN2c2cc3c(cc2[N+](=O)[O-])c(=O)c(C(=O)O)cn3-c2ccc(F)cc2)cc1 (stereo unspecified) | 5.271 |
| CCN(CC)C(=O)C1CCCN(c2cc3c(cc2[N+](=O)[O-])c(=O)c(C(=O)O)cn3C(C)(C)C)C1 (stereo unspecified) | 5.179 |
| O=C(O)c1cn(-c2ccc(F)cc2)c2cc(N3CCN(C(=O)C4COc5ccccc5O4)CC3)c([N+](=O)[O-])cc2c1=O (stereo unspecified) | 5.565 |
| O=C(O)c1cn(-c2ccc(F)cc2)c2cc(N3CCC(N4CCCCC4)CC3)c([N+](=O)[O-])cc2c1=O | 5.199 |
| O=C(O)c1cn(-c2ccc(F)cc2)c2cc(N3CCN(C(c4ccccc4)c4ccc(Cl)cc4)CC3)c([N+](=O)[O-])cc2c1=O (stereo unspecified) | 4.992 |
| O=C(O)c1cn(C2CC2)c2cc(N3CCN(C(c4ccccc4)c4ccc(Cl)cc4)CC3)c([N+](=O)[O-])cc2c1=O (stereo unspecified) | 5.253 |
| O=C(O)c1cn(C2CC2)c2cc(N3CCN(C(=O)C4COc5ccccc5O4)CC3)c([N+](=O)[O-])cc2c1=O (stereo unspecified) | 5.524 |
| O=C(O)c1cn(-c2ccc(F)cc2)c2cc(N3CCSCC3)c([N+](=O)[O-])cc2c1=O | 4.837 |
| CC(C)(C)n1cc(C(=O)O)c(=O)c2cc([N+](=O)[O-])c(N3CCN(Cc4ccc5c(c4)OCO5)CC3)cc21 | 5.513 |
| O=C(O)c1cn(-c2ccc(F)cc2)c2cc(N3CCN(C(=O)c4ccco4)CC3)c([N+](=O)[O-])cc2c1=O | 5.209 |
| CC1CN(c2cc3c(cc2[N+](=O)[O-])c(=O)c(C(=O)O)cn3C2CC2)CC(C)O1 (stereo unspecified) | 5.697 |
